The values below come from ChEMBL document CHEMBL1201862, “PubChem BioAssay data set” (2004).

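Interpolation was linear, between the two tested concentrations surrounding the appropriate level; five concentrations were tested over 48 hours in 96-well plates. GI50 is the concentration that inhibits growth by half.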 Active and inactive are the calls of the source. Cut-off read from the data, not from the text of the source: active = GI50 up to about 1.1 µM and inactive = higher.

Some test systems named below: NCI-H522; SW-620; SK-MEL-28; MDA-MB-435; NCI-H226; LOX IMVI; NCI/ADR-RES; RPMI-8226; MCF7; HCT-15; MDA-N; HCC 2998; HT-29; HL-60; PC-3; SNB-75; K562; IGROV-1; SK-MEL-2; BT-549.
What all share (assay): inhibition of tumour cell growth, NCI panel, 48 h

As to `Cc1ccc2c(/C=C/c3ccc(N(C)C)cc3)ccnc2c1C`, the GI50 is 19.1 µM (inactive) in the assay on NCI-H522; 20.4 µM (inactive) in the assay on SW-620; 17.1 µM (inactive) in the assay on SK-MEL-28; 4.57 µM (inactive) with MDA-MB-435; 30.5 µM (inactive) with NCI-H226; 28.5 µM (inactive) in the assay with LOX IMVI. Also, the GI50 in the assay on NCI/ADR-RES is 33.2 µM (inactive); in the assay with RPMI-8226, 11.1 µM (inactive); in the assay with MCF7, 15.7 µM (inactive); in the assay on HCT-15 it was 12.8 µM; in the assay with MDA-N it was 3.99 µM (inactive); in the assay on HCC 2998 it was 27.9 µM (inactive). Besides, the GI50 was 16.6 µM (inactive) in the assay with HT-29; 21.2 µM (inactive) in the assay on HL-60; 18.7 µM (inactive) with PC-3; 15.4 µM (inactive) in the assay on SNB-75; 6.81 µM (inactive) in the assay on K562.

As to `O=C(CC(C(=O)c1cccs1)c1ccsc1)c1ccco1` (stereo not given), the GI50 is 20 µM (inactive) in the assay on NCI-H522; 30.1 µM (inactive) in the assay on SW-620; 17.1 µM (inactive) in the assay on SK-MEL-28; 20.3 µM (inactive) in the assay with MDA-MB-435; 47.6 µM (inactive) in the assay on IGROV-1; 27 µM (inactive) in the assay on NCI-H226. Moreover, the GI50 was 37.3 µM (inactive) in the assay on LOX IMVI; 20.4 µM (inactive) in the assay with NCI/ADR-RES; 73.5 µM (inactive) in the assay on RPMI-8226; 21.1 µM (inactive) in the assay on MCF7; 21.5 µM in the assay on HCT-15; 27.7 µM (inactive) in the assay on MDA-N. In addition, the GI50 is 36 µM (inactive) in the assay with HCC 2998, 4.8 µM (inactive) in the assay on HT-29, 15.4 µM (inactive) in the assay on HL-60 and 28 µM (inactive) in the assay with SNB-75.

With `N#CCCN(CCN(C(=O)Nc1ccccc1)c1ccccc1)C(=O)Nc1ccccc1`, the GI50 is > 55.3 µM (inactive) in the assay with NCI-H522; > 100 µM (inactive) in the assay with SW-620; > 91.6 µM (inactive) with SK-MEL-28; 63.8 µM (inactive) with MDA-MB-435; 76.7 µM (inactive) in the assay with IGROV-1; 79.4 µM (inactive) with NCI-H226. For the same compound, the GI50 in the assay with LOX IMVI is 49.8 µM (inactive); in the assay with NCI/ADR-RES, 28.6 µM (inactive); in the assay with RPMI-8226, 17.6 µM (inactive); in the assay on MCF7, > 71.1 µM (inactive); in the assay with HCT-15, > 81.5 µM; with SK-MEL-2 it was > 100 µM (inactive). The GI50 is > 80.7 µM (inactive) in the assay on HCC 2998; > 100 µM (inactive) in the assay with HT-29; 13 µM (inactive) with HL-60; 42.6 µM (inactive) in the assay with BT-549; 43.3 µM (inactive) in the assay on PC-3; > 100 µM (inactive) with SNB-75. In addition, the GI50 with K562 is 29.9 µM (inactive).

`CC[N+]1(C)CCC(O)(c2ccc(Cl)c(Cl)c2)C(C(=O)c2ccc(Cl)c(Cl)c2)C1` (stereo not given): the GI50 in the assay with NCI-H522 is 3.08 µM (inactive); in the assay on SW-620 it was > 10 µM (inactive); with SK-MEL-28, > 10 µM (inactive); in the assay on IGROV-1, > 10 µM (inactive); with NCI-H226 it was > 10 µM (inactive); with LOX IMVI, > 10 µM (inactive). For the same compound, the GI50 in the assay on NCI/ADR-RES was > 10 µM (inactive); in the assay on RPMI-8226, > 10 µM (inactive); with MCF7 it was > 10 µM (inactive); in the assay on HCT-15 it was > 10 µM; in the assay with MDA-N, > 10 µM (inactive); in the assay with SK-MEL-2, > 10 µM (inactive). For the same compound, the GI50 in the assay with HCC 2998, in the assay on HT-29, with HL-60, in the assay with BT-549, with PC-3 and with SNB-75 was > 10 µM (inactive) each time. In addition, the GI50 in the assay on K562 is > 10 µM (inactive).

On to `Cn1c2c3ccccc3nc-2c(O)c2ccccc21` [HYDROXYCRYPTOLEPINE], for which the GI50 was > 100 µM (inactive) in the assay with NCI-H522; > 100 µM (inactive) in the assay with SW-620; 6.52 µM (inactive) in the assay on SK-MEL-28; > 100 µM (inactive) in the assay on MDA-MB-435; 35.4 µM (inactive) in the assay on IGROV-1; > 100 µM (inactive) with NCI-H226. Also, the GI50 in the assay with LOX IMVI is > 100 µM (inactive); with NCI/ADR-RES it was > 100 µM (inactive); in the assay on RPMI-8226, 45.7 µM (inactive); in the assay with MCF7 it was > 100 µM (inactive); in the assay on HCT-15 it was 53.3 µM; with MDA-N, > 100 µM (inactive). The GI50 with SK-MEL-2 is > 100 µM (inactive); with HCC 2998, > 100 µM (inactive); in the assay with HT-29, > 100 µM (inactive); in the assay with PC-3 it was > 100 µM (inactive); in the assay on SNB-75, 34.1 µM (inactive); in the assay with K562, > 100 µM (inactive).

Regarding `CC1C[C@]2(C)C(=O)Nc3ccccc3[C@@H]2Nc2ccccc21` (stereo not given in full), the GI50 with SW-620 was 34.6 µM (inactive); in the assay on SK-MEL-28 it was 28.6 µM (inactive); in the assay with MDA-MB-435 it was 24 µM (inactive); with IGROV-1, 24.4 µM (inactive); in the assay with NCI-H226, 26.1 µM (inactive); with LOX IMVI it was 16.3 µM (inactive). Further, the GI50 was 19.8 µM (inactive) in the assay with NCI/ADR-RES; 23.5 µM (inactive) in the assay on RPMI-8226; 21 µM (inactive) in the assay on MCF7; 34.7 µM in the assay on HCT-15; 28.8 µM (inactive) in the assay on MDA-N; 20.1 µM (inactive) in the assay with SK-MEL-2. Moreover, the GI50 with HCC 2998 was 33.7 µM (inactive); in the assay with HT-29 it was 14.7 µM (inactive); in the assay on HL-60 it was 36.4 µM (inactive); in the assay with PC-3, 17.6 µM (inactive); in the assay with SNB-75, 46.3 µM (inactive); in the assay on K562 it was 32.9 µM (inactive).

Turning to `O=C(NNC(c1ccccc1)C(F)(F)F)c1ccncc1` (stereo not given), the GI50 in the assay with NCI-H522, with SW-620, in the assay with SK-MEL-28, in the assay on MDA-MB-435, in the assay on IGROV-1 and in the assay on NCI-H226 was > 100 µM (inactive) each time. Besides, the GI50 with LOX IMVI was > 100 µM (inactive); in the assay on NCI/ADR-RES, > 100 µM (inactive); in the assay with RPMI-8226, > 100 µM (inactive); with MCF7, > 100 µM (inactive); in the assay with HCT-15, > 100 µM; in the assay with SK-MEL-2, > 100 µM (inactive). For the same compound, the GI50 in the assay with HCC 2998, with HT-29, in the assay with HL-60, in the assay on BT-549, with PC-3 and in the assay with SNB-75 was > 100 µM (inactive) throughout. Also, the GI50 in the assay with K562 is > 100 µM (inactive).

In the case of `COc1ccc(C2c3c(-c4ccccc4)nn(-c4ccccc4)c3Oc3ncn(N)c(=N)c32)cc1OC` (stereo not given), the GI50 was 2.21 µM (inactive) in the assay with NCI-H522; 2.9 µM (inactive) with SW-620; 2 µM (inactive) in the assay on SK-MEL-28; 1.85 µM (inactive) in the assay with MDA-MB-435; 1.51 µM (inactive) with IGROV-1; 2.46 µM (inactive) in the assay with NCI-H226. Further, the GI50 is 1.69 µM (inactive) in the assay with LOX IMVI; 2.21 µM (inactive) in the assay with NCI/ADR-RES; 2.73 µM (inactive) in the assay with RPMI-8226; 1.84 µM (inactive) in the assay on MCF7; 1.84 µM in the assay on HCT-15; 1.83 µM (inactive) in the assay on SK-MEL-2. For the same compound, the GI50 with HCC 2998 was 1.74 µM (inactive); in the assay on HT-29 it was 1.93 µM (inactive); in the assay on HL-60, 2.62 µM (inactive); with BT-549, 4.74 µM (inactive); in the assay on PC-3 it was 1.95 µM (inactive); with SNB-75 it was 1.62 µM (inactive). For the same compound, in the assay on K562, the GI50 was 3.82 µM (inactive).
